One data set addresses recombinant CaMKIIα (Homo sapiens, UniProt Q9UQM7). Nature of the data set: ADP-Glo assay, syntide-II phosphorylation. In kind it is biochemical. The note with it: fixed concentration of CaM, wide concentration span. Background: In ADP-Glo the light output rises with the ADP produced.
Data set [1] is described as follows: Body temperature recordings in mice. In kind it is in vivo, mouse. Particulars: C57/B6 mice, i.p.; GHB 275 mg/kg, HOCPCA 175 mg/kg.
In another data set the target is T1, CaMKIIα WT hub (Homo sapiens, UniProt Q9UQM7).
T1 sequence (Q9UQM7 345-475): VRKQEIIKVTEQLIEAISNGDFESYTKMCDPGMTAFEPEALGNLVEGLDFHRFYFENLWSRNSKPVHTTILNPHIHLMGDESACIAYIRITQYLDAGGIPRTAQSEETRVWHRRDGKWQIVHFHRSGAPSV
The data set is described as follows: Thermal shift assay by differential scanning fluorimetry. In kind it is binding. Particulars: saturating concentrations, pH 6. For orientation: DSF heats the sample and reads unfolding from a dye or from intrinsic fluorescence.

A further data set has as its target GABAB receptors. The note with it: cited from earlier work.
For a further data set, the system named is C57/B6 mice. Nature of the data set: Photothrombotic stroke model of focal ischemia.
The subject of another data set is hippocampal neurons. The data set is described as follows: Glu excitotoxicity in cultured hippocampal neurons, live/dead staining. The class given is cell-based, mouse. The note with it: for Cell survival after Glu: Camk2a-/- neurons.
For data set [2], the system named is mouse hippocampal slices (CA3–CA1). The data set is described as follows: Ex vivo LTP recordings in hippocampal slices. The note with it: bath application, 100 μM, 100 Hz induction.
Data set [3] deals with CaMKIIα Thr286 autophosphorylation. Nature of the data set: Thr286 autophosphorylation by Western blot in cultured cortical neurons. The class given is cell-based, mouse. Particulars: 1 h, HOCPCA 3 mM. On the technique in general: Immunoblotting shows a protein as a band on a membrane.
The subject of the next data set is cortical neurons. Nature of the data set: Glu/Gly excitotoxicity in cultured cortical neurons, LDH release. In kind it is cell-based, mouse.
Data set [4] deals with T2, CaMKIIα wild-type (WT) hub protein (Homo sapiens, UniProt Q9UQM7).
T2 sequence (Q9UQM7 345-475): T1 sequence (Q9UQM7 345-475)
Nature of the data set: Intrinsic tryptophan fluorescence. Particulars: increasing concentrations. The class given is binding.

Data set [5] has as its system CaMKIIα (mouse brain slices). The data set is described as follows: In vitro autoradiography on Camk2a and Camk2b +/+ and -/- mouse brain slices. In kind it is binding.
Data set [6] deals with CaMKIIβ/γ/δ subtypes; CaMKIIα Δhub. In kind it is binding, rat. Particulars: heterologously expressed in HEK293T cells.
Data set [7] addresses CaMKIIβ/γ/δ subtypes; CaMKIIα Δhub (Rattus norvegicus, UniProt P11275). In kind it is binding. Particulars: HEK293T cells transiently expressing Δhub.
[8] abbreviates: 175 mg/kg at 3, 6, 12 h poststroke.

“Also recorded” adds a separate entry of the source.

Sequence of recombinant CaMKIIα (Q9UQM7 whole entry): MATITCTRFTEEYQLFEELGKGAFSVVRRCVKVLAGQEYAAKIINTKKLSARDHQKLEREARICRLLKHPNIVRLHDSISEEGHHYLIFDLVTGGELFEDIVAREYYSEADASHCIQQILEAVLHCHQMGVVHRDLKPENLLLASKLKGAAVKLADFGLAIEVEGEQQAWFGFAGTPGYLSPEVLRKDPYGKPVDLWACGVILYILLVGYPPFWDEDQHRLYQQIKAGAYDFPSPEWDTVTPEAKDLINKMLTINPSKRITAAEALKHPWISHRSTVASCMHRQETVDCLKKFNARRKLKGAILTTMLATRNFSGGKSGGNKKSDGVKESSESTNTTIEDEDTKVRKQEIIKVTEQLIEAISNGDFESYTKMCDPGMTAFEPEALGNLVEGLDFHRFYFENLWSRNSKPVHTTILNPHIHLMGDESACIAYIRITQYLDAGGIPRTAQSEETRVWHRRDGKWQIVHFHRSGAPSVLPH
Sequence of CaMKIIβ/γ/δ subtypes; CaMKIIα Δhub (Rattus norvegicus, UniProt P11275) (P11275 1-337, stated change not applied): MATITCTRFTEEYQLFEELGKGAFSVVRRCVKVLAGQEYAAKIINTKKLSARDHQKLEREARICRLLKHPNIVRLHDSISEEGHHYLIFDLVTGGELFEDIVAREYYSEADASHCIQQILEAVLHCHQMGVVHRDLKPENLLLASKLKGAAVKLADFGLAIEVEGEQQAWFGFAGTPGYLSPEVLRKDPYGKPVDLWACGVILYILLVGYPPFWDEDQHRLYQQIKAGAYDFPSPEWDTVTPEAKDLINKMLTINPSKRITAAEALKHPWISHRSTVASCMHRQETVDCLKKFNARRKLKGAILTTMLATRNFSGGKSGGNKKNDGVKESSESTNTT

Usually Ki stands for a measure of affinity in units of concentration, obtained from inhibition or displacement. Turning to `O=C(O)CCCO` [GHB, γ-hydroxybutyrate, reference compound], the “Effect on syntide phosphorylation by CaMKIIα” value (“Effect … by CaMKIIα” below) at recombinant CaMKIIα was “no effect”. In addition, the “Effect on body temperature” value in data set [1] is reported as “strong hypothermia”. Besides, the “maximum Tm increase (maximum ∆Tm)” value on CaMKIIα WT hub was determined as 13 °C. Further, at GABAB receptors (GABAB receptors), the inhibition constant Ki is 230 µM.
Consider `O=C(O)C1=CC(O)CC1` (stereo not drawn) [HOCPCA, 3-hydroxycyclopent-1-enecarboxylic acid], for which, in the data set on C57/B6 mice (setting [8]), the “Forelimb asymmetry in the cylinder test” value was “improvements”. The “Motor coordination, paw placement on grid-walking task” value in the data set with C57/B6 mice (setting [8]) is on record as “improvements”. Also, in the data set on C57/B6 mice (175 mg/kg at 3, 6, and 12 h poststroke, measured 7 d poststroke, young male mice), the “reduction in infarct volume” value was 40 to 50%. For the same compound, the “Transport of neuroanatomical tracer biotinylated dextran amine” value with C57/B6 mice (175 mg/kg i.p., 14 days post-stroke) is reported as “reversal of the stroke-induced decrease”. Besides, the “Compound action potentials (CAPs), corpus callosum” value in the data set on C57/B6 mice (175 mg/kg single treatment 3 h poststroke, 14 d poststroke) is listed as 50 to 60 % of control. In addition, the “Treatment effect of single dose” value with C57/B6 mice (aged female mice, 175 mg/kg) is given as “significant treatment effects”; with C57/B6 mice (young males, 90 mg/kg, 3 h poststroke), “significant treatment effects”. Besides, in the data set with hippocampal neurons (Camk2a+/+ neurons, trend, not significant), the “mean recovery compared with the Glu-only condition (live/dead ratio)” value was determined as 18%. In the data set with hippocampal neurons, the “Cell survival after Glu” value is “neither tat-CN21 nor HOCPCA improved cell survival”. Moreover, in the data set with hippocampal neurons (FvB hippocampal cultures, 1 mM, 1 h poststimulation, 400 μM Glu), the Cell live/dead ratio entry is “significantly increased”. For the same compound, the “Effect … by CaMKIIα” value on recombinant CaMKIIα was “no effect”. In addition, in [1], the “Effect on body temperature” value was “no hypothermia”. For the same compound, in data set [2], the “Long-term potentiation (LTP)” value is listed as “did not inhibit”. In addition, the “maximum Tm increase (maximum ∆Tm)” value at CaMKIIα WT hub was 15 °C. Besides, the Thr286 autophosphorylation result in data set [3] (Ca2+-stimulated conditions) and in [3] (basal conditions) was “did not affect” throughout. In addition, the “Affinity to native GABAB receptors” value with GABAB receptors (at 1 mM) is listed as “no affinity; also recorded: lack affinity”. Besides, the “Cell survival (LDH)” value in the data set on cortical neurons (1 mM applied immediately or 30 min after Glu stimulation) was “did not have any effect”. The “Cell death (LDH)” value in the data set on cortical neurons (applied 1 h after Glu stimulus, concentration dependent (0.1 to 3 mM)) is reported as “significantly reduced cell death”. Moreover, the “Quenching of Trp403 fluorescence” value in data set [4] is recorded as “not seen”.
As for `COc1ccc(S(=O)(=O)N(CCO)c2ccccc2CN(C)C/C=C/c2ccc(Cl)cc2)cc1` [KN93, reference compound], the Thr286 autophosphorylation entry in data set [3] (basal conditions) is reported as “significant inhibition”.
In the case of `[3H]C1(O)C=C(C(=O)O)CC1` (stereo not drawn) [[3H]HOCPCA], in data set [5], the “Binding to brain slices from Camk2a-/- mice” value is “complete lack of binding”; the “Binding to brain tissue of Camk2a+/+, Camk2b+/+ and Camk2b-/- mice” value is “intact binding”. The “Binding to CaMKIIβ/γ/δ subtypes” value in data set [6] is “no [^3H]HOCPCA binding was observed”. Moreover, the “Binding to CaMKIIα hub deletion mutant (Δhub)” value in [7] is recorded as “complete absence”.
As to “GRKKRRQRRRKRPPKLGQIGRSKRVVIEDDR [tat-CN21, reference compound]”, in the data set with hippocampal neurons (Camk2a+/+ neurons), the “Live/dead ratio after Glu” value was “significantly improved”. Moreover, the “Cell survival after Glu” value in the data set with hippocampal neurons is listed as “neither tat-CN21 nor HOCPCA improved cell survival”. The “Cell death (LDH)” value in the data set with cortical neurons (tat-CN21 control (10 μM)) is listed as “significantly reduced cell death”.
For the compound KRPPKLGQIGRSKRVVIEDDR [CN21], in the data set with recombinant CaMKIIα, the “Effect … by CaMKIIα” value is listed as “concentration-dependent inhibition”.
